Calls of active or inactive are those of the source.
Legend:
Beta Lactamase = Beta Lactamase (Pseudomonas aeruginosa, UniProt Q932Y6); experiment: beta-lactamase reporter inhibitor potency, dose response, artefact control for TLR9-MyD88 binding inhibitor project, BLA reporter cells, FRET fluorescence (AID 588341); type: cell-based;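 note: cell based assay in CHO-K1 cells stably expressing beta-lactamase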
[1] = Luminescence Cell-Based Dose Retest to Confirm Inhibitors of Cancer Stem Cells. [Related pubchem assays (depositor defined):AID2717, AID2721]; type: functional; details: Homo sapiens
CHO = experiment: cytotoxicity in TLR9-MyD88 CHO cells, dose response, cytotoxicity control for TLR9-MyD88 binding inhibitor project, cell-based, luminescence (AID 588339); type: functional, hamster; details: Cricetulus griseus;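 note: CHO cells stably coexpressing TLR9 and MyD88 fusions from primary screen; compound exposure lasted 48 hours before viability readout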
[2] = target: Latent membrane protein 1 (Human herpesvirus 4 (strain B95-8), UniProt P03230); experiment: TES1-eGFP NF-kB reporter inhibition versus Tet-On dsRED, dose response, selectivity assay for LMP1 NF-kB inhibitor project, imaging, HEK293T, dual-color eGFP/dsRED, cherry-picks (AID 588398); type: functional, cell-based
Cytochrome P450 3A4 = Cytochrome P450 3A4 (Homo sapiens, UniProt P08684);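 note: CYP3A4 tested as one member of a cytochrome P450 panel screen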
Protein Rev = target: T1, Protein Rev (Human immunodeficiency virus type 1 group M subtype B (isolate HXB2)(HIV-1), UniProt P04618); experiment: inhibitors of Rev binding to RRE RNA, dose response, biochemical, fluorescence polarization, HIV-1 (AID 434976); parameters: species or system Human immunodeficiency virus 1
T1 sequence (P04618 whole entry): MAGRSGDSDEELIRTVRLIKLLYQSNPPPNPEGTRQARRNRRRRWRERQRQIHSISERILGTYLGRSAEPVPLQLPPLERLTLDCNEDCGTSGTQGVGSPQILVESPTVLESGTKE

[3] = target: T2, Female germline-specific tumor suppressor gld-1 (Caenorhabditis elegans, UniProt Q17339); experiment: inhibitors of GLD-1 binding to TGE RNA, dose response, biochemical, fluorescence polarization, C. elegans (AID 2802);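 note: fluorescence polarization of labeled TGE RNA bound by purified gld-1 protein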
T2 sequence (Q17339 whole entry): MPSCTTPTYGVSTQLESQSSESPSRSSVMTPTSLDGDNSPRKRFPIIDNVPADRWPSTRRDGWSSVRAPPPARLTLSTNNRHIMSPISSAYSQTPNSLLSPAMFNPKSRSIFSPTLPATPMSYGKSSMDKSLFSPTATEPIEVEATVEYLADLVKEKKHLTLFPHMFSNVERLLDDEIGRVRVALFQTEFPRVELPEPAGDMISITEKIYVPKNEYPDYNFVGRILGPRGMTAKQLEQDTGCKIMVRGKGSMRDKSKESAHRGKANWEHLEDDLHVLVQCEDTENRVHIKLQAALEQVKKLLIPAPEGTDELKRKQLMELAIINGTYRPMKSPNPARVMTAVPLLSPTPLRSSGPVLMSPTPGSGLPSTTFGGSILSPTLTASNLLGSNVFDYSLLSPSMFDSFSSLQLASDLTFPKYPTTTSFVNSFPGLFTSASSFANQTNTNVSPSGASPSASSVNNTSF

HEK293 [4] = experiment: optical interference in Abeta FP readout, dose response, artefact control for IDE activator project, biochemical, fluorescence polarization (AID 588442); type: functional, cell-based; details: Homo sapiens
Insulin-degrading enzyme [5] = target: T3, Insulin-degrading enzyme (Homo sapiens, UniProt P14735); experiment: activators of endogenous IDE in HEK cells, dose response, cell-based, fluorescence polarization (AID 588439); type: functional
T3 sequence (P14735 whole entry): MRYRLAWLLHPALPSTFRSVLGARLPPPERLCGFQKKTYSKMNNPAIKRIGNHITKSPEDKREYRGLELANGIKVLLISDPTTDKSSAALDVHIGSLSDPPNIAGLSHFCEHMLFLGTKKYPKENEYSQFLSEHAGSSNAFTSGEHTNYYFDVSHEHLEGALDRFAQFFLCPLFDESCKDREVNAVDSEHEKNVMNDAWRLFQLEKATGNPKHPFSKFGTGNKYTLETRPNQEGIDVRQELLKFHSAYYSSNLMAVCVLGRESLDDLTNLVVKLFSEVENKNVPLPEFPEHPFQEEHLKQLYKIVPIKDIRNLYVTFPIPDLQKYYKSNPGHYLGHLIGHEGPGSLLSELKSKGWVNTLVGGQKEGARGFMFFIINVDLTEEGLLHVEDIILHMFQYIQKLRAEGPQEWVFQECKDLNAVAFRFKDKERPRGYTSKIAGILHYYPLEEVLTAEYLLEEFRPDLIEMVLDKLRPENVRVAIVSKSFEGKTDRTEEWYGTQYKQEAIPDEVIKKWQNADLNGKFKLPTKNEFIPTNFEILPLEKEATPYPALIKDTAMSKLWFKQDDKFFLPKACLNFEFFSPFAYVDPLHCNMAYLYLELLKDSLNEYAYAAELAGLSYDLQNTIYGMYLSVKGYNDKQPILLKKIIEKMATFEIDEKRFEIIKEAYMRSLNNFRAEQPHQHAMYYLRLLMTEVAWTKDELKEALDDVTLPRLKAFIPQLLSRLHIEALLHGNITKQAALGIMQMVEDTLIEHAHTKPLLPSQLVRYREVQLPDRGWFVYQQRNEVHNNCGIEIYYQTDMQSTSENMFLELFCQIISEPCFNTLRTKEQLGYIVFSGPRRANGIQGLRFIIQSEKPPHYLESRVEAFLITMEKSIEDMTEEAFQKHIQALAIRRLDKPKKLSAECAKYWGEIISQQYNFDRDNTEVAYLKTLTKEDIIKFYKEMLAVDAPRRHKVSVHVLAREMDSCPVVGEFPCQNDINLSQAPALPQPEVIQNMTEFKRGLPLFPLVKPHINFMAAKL

[6] = Luminescence Cell-Based Dose Confirmation HTS to Identify Activators of 5'UTR Stem-Loop Driven Alpha-Synuclein mRNA Translation in H4 Neuroglioblastoma Cells. [Related pubchem assays: 1829 (Project Summary), 1814 (Primary HTS)]; type: functional
Insulin-degrading enzyme [7] = target: T3, Insulin-degrading enzyme; experiment: activators of recombinant IDE enzyme, dose response, counter-screen for IDE activator project, biochemical, fluorescence polarization (AID 588681)
HEK293 [8] = experiment: HEK cell cytotoxicity by LDH release, dose response, cytotoxicity control for IDE activator project, fluorescence, HEK cells (AID 588440); type: functional, cell-based; details: Homo sapiens;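 note: cytotoxicity by LDH release measuring loss of membrane integrity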
[9] = target: T4, Zinc finger protein mex-5 (Caenorhabditis elegans, UniProt Q9XUB2); experiment: MEX-5/TCR-2 RNA interaction inhibitors, dose response, biochemical, C. elegans, fluorescence polarization (AID 1960)
T4 sequence (Q9XUB2 whole entry): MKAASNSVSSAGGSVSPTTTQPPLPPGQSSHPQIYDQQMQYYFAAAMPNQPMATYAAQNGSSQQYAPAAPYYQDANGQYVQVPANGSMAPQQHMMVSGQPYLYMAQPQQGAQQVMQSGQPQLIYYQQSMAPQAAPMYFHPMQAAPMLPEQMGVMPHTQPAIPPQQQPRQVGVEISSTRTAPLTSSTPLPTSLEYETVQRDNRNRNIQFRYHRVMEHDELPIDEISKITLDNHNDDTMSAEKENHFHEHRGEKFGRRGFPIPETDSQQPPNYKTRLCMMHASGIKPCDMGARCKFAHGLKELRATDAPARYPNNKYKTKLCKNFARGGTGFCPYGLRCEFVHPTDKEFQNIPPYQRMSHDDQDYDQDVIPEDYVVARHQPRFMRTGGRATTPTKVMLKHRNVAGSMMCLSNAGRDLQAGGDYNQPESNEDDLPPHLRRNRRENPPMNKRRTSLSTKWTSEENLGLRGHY

[10] = target: T5, RNA-binding protein pos-1 (Caenorhabditis elegans, UniProt G5EF15); experiment: inhibitors of POS-1/mex-3 RNA binding, dose response, biochemical, fluorescence polarization (AID 1964);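 note: purified POS-1 fused to maltose binding protein made in E. coli; potency of compounds blocking POS-1 binding to fluorescent RNA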
T5 sequence (G5EF15 whole entry): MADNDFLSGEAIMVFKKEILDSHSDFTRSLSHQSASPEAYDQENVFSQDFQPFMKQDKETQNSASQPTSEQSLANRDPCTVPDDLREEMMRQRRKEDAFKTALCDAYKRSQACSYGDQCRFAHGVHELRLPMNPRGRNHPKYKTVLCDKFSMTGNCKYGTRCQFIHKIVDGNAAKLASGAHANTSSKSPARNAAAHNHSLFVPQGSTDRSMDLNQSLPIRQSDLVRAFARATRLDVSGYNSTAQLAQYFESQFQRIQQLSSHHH

H4 = experiment: Luminescence Cell-Based Dose Response HTS to Identify Activators of 5'UTR Stem-Loop Driven Prion Protein mRNA Translation in H4 Neuroglioblastoma Cells. [Related pubchem assays: 1829 (Project Summary), 1814 (Primary HTS)]; type: functional; details: Homo sapiens
[11] = Luminescence Cell-Based Dose Response HTS to Identify Activators of Luciferase Translation or Activity in H4 […] Cells. [Related pubchem assays: 1829 (Project Summary), 1814 (Primary HTS)]; type: functional
INS1 = experiment: beta cell apoptosis inhibitors, cytokine rescue, dose response, luminescence, retest (AID 449756); type: functional, cell-based; details: Rattus norvegicus;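 note: cell death triggered by IL-1 beta plus TNF-alpha plus IFN-gamma mixture; protective hits raise ATP signal compared with cytokine alone wells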
[12] = cytotoxicity toward DRD oncogenic fibroblasts, dose response, cell-based, non-viral oncogenic, luminescence (AID 1934); type: functional; details: Homo sapiens
[13] = target: T6, Mannose-6-phosphate isomerase (Homo sapiens, UniProt P34949); experiment: human PMI inhibitors, high substrate, primary screen, biochemical, fluorescence intensity, high mannose 6-phosphate (AID 1220)
T6 sequence (P34949 whole entry): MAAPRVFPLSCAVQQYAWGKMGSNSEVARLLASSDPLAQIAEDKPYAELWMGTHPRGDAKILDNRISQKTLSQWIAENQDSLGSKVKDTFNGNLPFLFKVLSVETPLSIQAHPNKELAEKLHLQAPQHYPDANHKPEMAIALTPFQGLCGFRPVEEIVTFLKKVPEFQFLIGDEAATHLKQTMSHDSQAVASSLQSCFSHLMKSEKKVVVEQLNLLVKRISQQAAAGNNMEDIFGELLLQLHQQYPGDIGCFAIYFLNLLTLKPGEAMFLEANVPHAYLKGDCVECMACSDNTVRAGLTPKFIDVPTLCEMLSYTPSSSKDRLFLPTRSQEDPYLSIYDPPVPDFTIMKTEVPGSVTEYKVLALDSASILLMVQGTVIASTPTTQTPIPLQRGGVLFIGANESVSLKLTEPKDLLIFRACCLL

BJ [14] = experiment: cytotoxicity toward BJ-TERT fibroblasts, dose response, cell-based, RAS-independent, luminescence (AID 1933); type: functional; details: Homo sapiens
BJ [15] = experiment: cytotoxicity toward Ras-transformed BJeLR fibroblasts, dose response, cell-based, alamar blue fluorescence, cherrypicked samples (AID 2631); type: functional; details: Homo sapiens;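 note: confirmatory dose-response assay in RAS-dependent BJ fibroblasts engineered with TERT, LT and ST, with cytotoxicity read by fluorescence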
BJ [16] = experiment: cells; type: functional, cell-based; details: Homo sapiens
[17] = target: DNA dC->dU-editing enzyme APOBEC-3G (Homo sapiens, UniProt Q9HC16); experiment: Dose Response confirmation of small molecule APOBEC3G DNA Deaminase Inhibitors via a fluorescence-based single-stranded DNA deaminase assay. [Related pubchem assays (depositor defined):AID493012, AID493028]; type: functional
[18] = target: DNA dC->dU-editing enzyme APOBEC-3A (Homo sapiens, UniProt P31941); experiment: APOBEC3A DNA deaminase inhibitors, dose response, biochemical (AID 504722); type: functional
BJ [19] = experiment: cytotoxicity toward BJ-TERT-LT-ST fibroblasts, dose response, cell-based, RAS-independent, luminescence (AID 1935); type: functional; details: Homo sapiens;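 note: BJ fibroblasts immortalized with TERT plus LT and ST oncogenes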
[20] = target: Sphingosine 1-phosphate receptor 2 (Homo sapiens, UniProt O95136); experiment: Dose Response Cell Based Assay for Antagonists of the S1P2 Receptor. [Related pubchem assays: 856, 736 ]; type: functional
HEK293 [21] = experiment: inhibitors of LMP1-driven NF-kB reporter, dose response, cell-based, HEK293, luciferase, cherry-pick (AID 588343); type: functional; details: Homo sapiens

Latent membrane protein 1, sequence (P03230 whole entry): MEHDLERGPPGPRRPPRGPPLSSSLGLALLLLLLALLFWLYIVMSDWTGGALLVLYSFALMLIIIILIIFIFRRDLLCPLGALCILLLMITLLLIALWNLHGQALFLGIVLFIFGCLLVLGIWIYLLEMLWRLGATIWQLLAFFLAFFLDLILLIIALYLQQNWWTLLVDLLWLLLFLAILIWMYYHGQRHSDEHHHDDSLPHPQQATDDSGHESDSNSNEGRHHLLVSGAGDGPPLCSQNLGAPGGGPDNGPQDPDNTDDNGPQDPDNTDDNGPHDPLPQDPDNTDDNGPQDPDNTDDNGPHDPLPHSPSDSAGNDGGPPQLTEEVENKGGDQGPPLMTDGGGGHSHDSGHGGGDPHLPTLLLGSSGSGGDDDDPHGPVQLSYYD
Beta Lactamase, sequence (Q932Y6 whole entry): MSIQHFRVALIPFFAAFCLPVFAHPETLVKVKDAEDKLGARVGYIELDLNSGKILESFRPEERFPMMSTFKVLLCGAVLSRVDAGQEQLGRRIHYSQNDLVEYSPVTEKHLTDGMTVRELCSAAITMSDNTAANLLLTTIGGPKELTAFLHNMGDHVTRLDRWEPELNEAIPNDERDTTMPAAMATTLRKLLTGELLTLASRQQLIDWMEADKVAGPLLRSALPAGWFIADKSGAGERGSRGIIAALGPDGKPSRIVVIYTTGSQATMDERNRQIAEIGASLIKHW
DNA dC->dU-editing enzyme APOBEC-3A, sequence (P31941 whole entry): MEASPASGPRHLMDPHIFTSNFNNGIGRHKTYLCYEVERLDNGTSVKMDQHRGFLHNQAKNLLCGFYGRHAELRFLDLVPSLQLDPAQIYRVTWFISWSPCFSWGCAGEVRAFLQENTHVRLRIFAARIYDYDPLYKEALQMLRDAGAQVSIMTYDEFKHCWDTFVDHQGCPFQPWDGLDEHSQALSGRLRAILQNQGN
Sphingosine 1-phosphate receptor 2, sequence (O95136 whole entry): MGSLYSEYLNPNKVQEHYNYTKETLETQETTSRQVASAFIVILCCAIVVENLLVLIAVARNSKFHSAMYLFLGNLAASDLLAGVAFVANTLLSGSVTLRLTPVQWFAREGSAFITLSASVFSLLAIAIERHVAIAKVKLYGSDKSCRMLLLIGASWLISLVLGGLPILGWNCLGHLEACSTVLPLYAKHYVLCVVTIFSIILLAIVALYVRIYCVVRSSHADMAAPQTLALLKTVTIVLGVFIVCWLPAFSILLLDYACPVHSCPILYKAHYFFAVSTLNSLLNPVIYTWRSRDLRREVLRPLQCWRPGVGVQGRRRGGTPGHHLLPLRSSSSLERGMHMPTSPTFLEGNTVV
DNA dC->dU-editing enzyme APOBEC-3G, sequence (Q9HC16 whole entry): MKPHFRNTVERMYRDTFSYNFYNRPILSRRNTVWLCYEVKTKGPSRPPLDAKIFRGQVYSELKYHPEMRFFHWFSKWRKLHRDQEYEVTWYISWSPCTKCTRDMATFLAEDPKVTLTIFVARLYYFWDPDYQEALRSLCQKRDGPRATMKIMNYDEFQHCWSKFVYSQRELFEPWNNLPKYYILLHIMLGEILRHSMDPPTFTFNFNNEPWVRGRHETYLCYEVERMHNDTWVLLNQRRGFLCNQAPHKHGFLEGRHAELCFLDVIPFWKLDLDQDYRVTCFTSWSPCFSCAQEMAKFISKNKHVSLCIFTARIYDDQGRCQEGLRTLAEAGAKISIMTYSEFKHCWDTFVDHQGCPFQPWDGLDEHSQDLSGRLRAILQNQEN
Cytochrome P450 3A4, sequence (P08684 whole entry): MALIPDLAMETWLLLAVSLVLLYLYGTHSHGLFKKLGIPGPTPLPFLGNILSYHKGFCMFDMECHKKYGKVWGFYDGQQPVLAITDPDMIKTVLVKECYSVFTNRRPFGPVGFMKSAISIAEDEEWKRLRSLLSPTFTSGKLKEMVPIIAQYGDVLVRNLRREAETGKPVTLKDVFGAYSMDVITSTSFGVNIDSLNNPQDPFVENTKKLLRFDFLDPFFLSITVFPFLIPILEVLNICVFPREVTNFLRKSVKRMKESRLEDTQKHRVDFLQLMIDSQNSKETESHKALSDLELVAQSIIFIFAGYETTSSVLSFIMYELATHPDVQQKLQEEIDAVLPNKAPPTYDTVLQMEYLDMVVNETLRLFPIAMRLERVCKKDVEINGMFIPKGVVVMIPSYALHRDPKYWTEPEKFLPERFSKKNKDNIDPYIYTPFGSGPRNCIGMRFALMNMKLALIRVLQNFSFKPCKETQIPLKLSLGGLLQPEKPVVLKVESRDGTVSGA

CCC(C)Sc1ccc(-c2nc3cnccn3c2NC2CCCCC2)cc1 (stereo not given)
IC50 (Beta Lactamase): 3.68 µM (active) | AC50 [1]: 3.63 µM (active) | IC50 (CHO): 21.4 µM (inactive)

COc1cccc(-c2nc(NCc3ccccc3)c3ccccc3n2)c1O
AC50 [2]: 91 µM (active)

Cc1ccc(S(=O)(=O)N[C@H](C(=O)Oc2ccc3c(C(F)(F)F)cc(=O)oc3c2)c2ccccc2)cc1
AC50 (Cytochrome P450 3A4): 25.1 µM (inconclusive) | IC50 (Protein Rev): 26.9 µM (not active) | IC50 [3]: 3.89 µM (active) | IC50 (Beta Lactamase): 3.73 µM (active) | IC50 (CHO): > 49.7 µM (inactive)

Cc1ccc(NNC2=C3N=NN=C3C=CC2=O)cc1
EC50 (HEK293 [4]): 0.659 µM (active) | EC50 (Insulin-degrading enzyme [5]): 0.891 µM (active) | EC50 [6]: 0.399 µM (active) | EC50 (Insulin-degrading enzyme [7]): 1.32 µM (active) | IC50 (HEK293 [8]): > 89.3 µM (inactive) | EC50 [9]: 2.99 µM (active) | EC50 [10]: 22.4 µM (active) | EC50 (H4): > 120 µM (not active) | EC50 [11]: 50.3 µM (active) | AC50 (INS1): 5.05 µM (active)

CC1=C/C(=N\OS(=O)(=O)c2ccccc2)C=CC1=O
EC50 [12]: 6.19 µM (active) | IC50 [13]: 2.71 µM (active) | EC50 (BJ [14]): 2.56 µM (active) | EC50 (BJ [15]): 0.542 µM (inconclusive) | EC50 (BJ [16]): 3.33 µM (active) | IC50 [17]: 7.43 µM (active) | IC50 [18]: > 100 µM (inactive) | EC50 (BJ [19]): 4.43 µM (inconclusive) | IC50 [20]: 5.98 µM (active)

Cc1ccc(S(=O)(=O)NC(CC(C)C)C(=O)NCC(c2ccco2)N2CCCCC2)cc1 (stereo not given)
AC50 (HEK293 [21]): 1.8 µM (active) | AC50 [2]: 24.5 µM (active)

From ChEMBL document CHEMBL1201862, “PubChem BioAssay data set” (2004)
